Earlier results on one compound are cited in patent publication US20210299070A1, “METHODS OF TREATING CREATINE T[…]” (Jnana Therapeutics, Inc., priority 2018, published 2021).

The structures appear in SMILES notation.

For data set [1] the following is noted: patients with GAMT or AGAT deficiency; oral supplements.
The conditions of data set [2]: patients with CID (creatine transporter deficiency); oral supplements.

For `CN(CC(=O)O)C(=N)N.O` [creatine monohydrate], the clinical symptoms result in data set [1] was “clinical symptoms improved”. Also, the response to treatment entry in data set [2] is given as “did not respond to treatment”.
